Test results from ChEMBL document CHEMBL2202953, “Structure-based redesign of an edema toxin inhibitor” (Bioorg Med Chem, 2012).

Experiments:
[1] = target: T1, Calmodulin-sensitive adenylate cyclase (Bacillus anthracis, UniProt P40136); assay type: cell-based, RAW264.7
T1 sequence (P40136 whole entry): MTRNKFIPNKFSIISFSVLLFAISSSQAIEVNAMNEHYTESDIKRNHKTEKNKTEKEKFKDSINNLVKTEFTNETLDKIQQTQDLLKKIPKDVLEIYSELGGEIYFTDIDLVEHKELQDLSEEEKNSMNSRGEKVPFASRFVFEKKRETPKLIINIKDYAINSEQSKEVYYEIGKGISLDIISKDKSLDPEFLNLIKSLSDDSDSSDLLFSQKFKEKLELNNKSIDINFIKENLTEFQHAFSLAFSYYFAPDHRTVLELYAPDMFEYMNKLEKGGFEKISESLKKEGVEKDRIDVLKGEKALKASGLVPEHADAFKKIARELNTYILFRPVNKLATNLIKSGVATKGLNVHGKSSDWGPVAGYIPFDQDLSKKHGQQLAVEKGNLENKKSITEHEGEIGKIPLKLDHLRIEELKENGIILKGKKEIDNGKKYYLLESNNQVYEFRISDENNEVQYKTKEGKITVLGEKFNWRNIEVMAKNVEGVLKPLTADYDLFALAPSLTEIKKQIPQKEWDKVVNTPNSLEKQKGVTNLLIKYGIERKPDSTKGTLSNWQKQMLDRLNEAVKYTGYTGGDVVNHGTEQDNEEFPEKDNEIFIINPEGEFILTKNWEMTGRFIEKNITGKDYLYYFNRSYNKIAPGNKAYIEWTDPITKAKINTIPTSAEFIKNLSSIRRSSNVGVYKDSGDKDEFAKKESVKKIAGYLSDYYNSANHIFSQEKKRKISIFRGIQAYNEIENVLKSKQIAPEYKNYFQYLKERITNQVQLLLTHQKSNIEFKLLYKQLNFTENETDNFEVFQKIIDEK

[2] = Genotoxicity against human GenM-T01 cells assessed as induction of GFP expression after 48 hrs by GADD45alpha-GFP assay; assay type: toxicity, cell-based; settings: genm-t01, 48 h
[3] = Genotoxicity against human GenM-T01 cells assessed as induction of GFP expression after 24 hrs by GADD45alpha-GFP assay; assay type: toxicity, cell-based; settings: genm-t01, 24 h
[4] = tested on: Salmonella typhimurium; experiment: Mutagenicity in Salmonella typhimurium TAMix at 0.975 ug/mL to 1000 ug/mL after 48 hrs in presence of liver S9 fraction by Ames test; assay type: toxicity, organism-based; settings: salmonella enterica subsp. enterica serovar typhimurium, s9, 48 h
[5] = tested on: Salmonella typhimurium; experiment: Mutagenicity in Salmonella typhimurium TA98 at 0.975 ug/mL to 1000 ug/mL after 48 hrs in absence of liver S9 fraction by Ames test; assay type: toxicity, organism-based; settings: salmonella enterica subsp. enterica serovar typhimurium
[6] = tested on: Salmonella typhimurium; experiment: Mutagenicity in Salmonella typhimurium TAMix at 0.975 ug/mL to 1000 ug/mL after 48 hrs in absence of liver S9 fraction by Ames test; assay type: toxicity, organism-based; settings: salmonella enterica subsp. enterica serovar typhimurium
[7] = Cytotoxic activity against human GenM-T01 cells after 48 hrs; assay type: cell-based; settings: genm-t01, 48 h
[8] = Cytotoxic activity against human GenM-C01 cells after 48 hrs; assay type: cell-based; settings: genm-c01, 48 h
[9] = tested on: Salmonella typhimurium; experiment: Mutagenicity in Salmonella typhimurium TA98 at 0.975 ug/mL to 1000 ug/mL after 48 hrs in presence of liver S9 fraction by Ames test; assay type: toxicity, organism-based; settings: salmonella enterica subsp. enterica serovar typhimurium, s9, 48 h
[10] = Cytotoxic activity against human GenM-T01 cells after 24 hrs; assay type: cell-based; settings: genm-t01, 24 h

Compound | IC50 [1] [µM] | also measured
O=C(O)c1cccc(NC(=O)c2ccccc2)c1 | > 100 | –
COC(=O)c1cccc(NC(=O)c2cccc(-c3ccccc3)c2)c1 | 19 | –
COC(=O)c1cccc(NC(=O)c2cccc3c2C(=O)c2ccccc2-3)c1 | 11 | –
Nc1ccc(NC(=O)c2cccc3c2C(=O)c2ccccc2-3)c(C(=O)O)c1 | 80 | –
Nc1ccc(NC(=O)c2cccc3c2C(=O)c2ccccc2-3)cc1C(=O)O | 6.08 | –
O=C(O)c1cccc(NC(=O)c2cccc3c2C(=O)c2ccccc2-3)c1Cl | 9.21 | –
COC(=O)c1cc(NC(=O)c2cccc3c2C(=O)c2ccccc2-3)ccc1O | > 100 | –
CSc1cccc(NC(=O)c2cccc3c2C(=O)c2ccccc2-3)c1 | 26 | –
O=C(Nc1cccc(OC(F)(F)F)c1)c1cccc2c1C(=O)c1ccccc1-2 | 6.8 | –
O=C(NO)c1cccc(NC(=O)c2cccc3c2C(=O)c2ccccc2-3)c1 | 12.9 | –
O=C(O)c1cccc(NC(=O)c2cccc3c2C(=O)c2ccccc2-3)c1 | – | MTC [2]: 62.5 µg/mL; MTC [3]: 62.5 µg/mL; Activity [4]: Non-toxic; Activity [5]: Non-toxic; Activity [6]: Non-toxic; MTC [7]: 62.5 µg/mL; MTC [8]: 62.5 µg/mL; Activity [9]: Non-toxic; MTC [10]: 62.5 µg/mL
